“And” between values parts separate entries of the source, which are not always exact repeats. Equal values may be shown once. Toxic doses and inconclusive results are not listed. Rule as the data show it: active = T/C of 150% or more; inactive = T/C below 125%.
Test system: L1210 leukemia ip in BDF1 mice, survival T/C
Assay: NCI In Vivo Anticancer Drug Screen. Data for tumor model L1210 Leukemia (intraperitoneal) in B6D2F1 (BDF1) mice
Conditions: endpoint: mean survival time, higher = longer survival
How it was run: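 Value reflects the ratio of survival in compound-treated mice to survival in vehicle-treated controls, with both groups carrying the same transplanted tumor.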

Measured: T/C

CC(C)C1C(=O)N2CCCC2C2(O)OC(C(=O)NCCc3ccccc3)(C(C)C)C(=O)N12 (centres undefined)
inactive: dose: 25.0 mg/kg/injection, schedule: Q04DX003 (ip), vehicle: alcohol 98 % of control | dose: 50.0 mg/kg/injection, schedule: Q04DX003 (ip), vehicle: alcohol 105 % of control and 100 % of control | dose: 100.0 mg/kg/injection, schedule: Q04DX003 (ip), vehicle: alcohol 100 % of control and 104 % of control | dose: 200.0 mg/kg/injection, schedule: Q04DX003 (ip), vehicle: alcohol 100 % of control and 102 % of control | dose: 400.0 mg/kg/injection, schedule: Q04DX003 (ip), vehicle: alcohol 93 % of control

CNC(=O)NCC1OC(OC2(CO)OC(CNC(=O)NC)C(O)C2O)C(O)C(O)C1O (centres undefined)
inactive: dose: 50.0 mg/kg/injection, schedule: Q01DX009 (ip), vehicle: saline 91 % of control | dose: 100.0 mg/kg/injection, schedule: Q01DX009 (ip), vehicle: saline 98 % of control | dose: 200.0 mg/kg/injection, schedule: Q01DX009 (ip), vehicle: saline 98 % of control

CCC(C)NC(C)=O (centres undefined)
inactive: dose: 100.0 mg/kg/injection, schedule: Q04DX003 (ip), vehicle: saline 115 % of control | dose: 200.0 mg/kg/injection, schedule: Q04DX003 (ip), vehicle: saline 97 % of control | dose: 400.0 mg/kg/injection, schedule: Q04DX003 (ip), vehicle: saline 110 % of control

O=S1(=O)CC(Cl)C1
inactive: dose: 50.0 mg/kg/injection, schedule: Q01DX001 (ip), vehicle: carboxymethylcellulose (CMC) 107 % of control | dose: 100.0 mg/kg/injection, schedule: Q01DX001 (ip), vehicle: carboxymethylcellulose (CMC) 89 % of control | dose: 200.0 mg/kg/injection, schedule: Q01DX001 (ip), vehicle: carboxymethylcellulose (CMC) 97 % of control

CC12CC1(C)C(=O)OC2=O (centres undefined)
inactive: dose: 100.0 mg/kg/injection, schedule: Q04DX003 (ip), vehicle: saline with Tween-80 87 % of control | dose: 200.0 mg/kg/injection, schedule: Q04DX003 (ip), vehicle: saline with Tween-80 92 % of control

CC(=O)OC1CCC(=O)C2C(C(=O)O)CCCC12 (centres undefined)
inactive: dose: 100.0 mg/kg/injection, schedule: Q01DX001 (ip), vehicle: saline 97 % of control | dose: 200.0 mg/kg/injection, schedule: Q01DX001 (ip), vehicle: saline 103 % of control | dose: 400.0 mg/kg/injection, schedule: Q01DX001 (ip), vehicle: saline 91 % of control

— PubChem BioAssay AID248 (DTP/NCI, 2004)
